What was measured:
Assay in all cases: SelectScreen kinase profiling, SSBK ZLyte SP Technology
Assay type in all cases: biochemical
[1] = target: kinase named in conditions (Homo sapiens, UniProt O76039); details: CDKL5, 10 μM
Protocol: (§1) Kinase selectivity screening was performed by Thermo Fisher Scientific (Paisley, U.K.) in their SelectScreen Biochemical Kinase Profiling Service. Assay information and data are presented in the Supporting Information.
(§2) Kinase selectivity screening was performed by ThermoFisher Scientific (Paisley, U.K.) in their SelectScreenTM
(§3) Biochemical Kinase Profiling service .

[2] = target: kinase named in conditions (Homo sapiens, UniProt P00533, L858R/T790M); details: EGFR (ErbB1) T790M L858R, 10 μM
Protocol: as §1, §2, §3

[3] = target: kinase named in conditions (Homo sapiens, UniProt P04629); details: NTRK1 (TRKA), 10 μM
Protocol: as §1, §2, §3

[4] = target: kinase named in conditions (Homo sapiens, UniProt P06213); details: INSR, 10 μM
Protocol: as §1, §2, §3

[5] = target: kinase named in conditions (Homo sapiens, UniProt P07332); details: FES (FPS), 10 μM
Protocol: as §1, §2, §3

[6] = target: kinase named in conditions (Homo sapiens, UniProt P07333); details: CSF1R (FMS), 10 μM
Chain of kinase named in conditions (Homo sapiens, UniProt P07333) (P07333 20-972): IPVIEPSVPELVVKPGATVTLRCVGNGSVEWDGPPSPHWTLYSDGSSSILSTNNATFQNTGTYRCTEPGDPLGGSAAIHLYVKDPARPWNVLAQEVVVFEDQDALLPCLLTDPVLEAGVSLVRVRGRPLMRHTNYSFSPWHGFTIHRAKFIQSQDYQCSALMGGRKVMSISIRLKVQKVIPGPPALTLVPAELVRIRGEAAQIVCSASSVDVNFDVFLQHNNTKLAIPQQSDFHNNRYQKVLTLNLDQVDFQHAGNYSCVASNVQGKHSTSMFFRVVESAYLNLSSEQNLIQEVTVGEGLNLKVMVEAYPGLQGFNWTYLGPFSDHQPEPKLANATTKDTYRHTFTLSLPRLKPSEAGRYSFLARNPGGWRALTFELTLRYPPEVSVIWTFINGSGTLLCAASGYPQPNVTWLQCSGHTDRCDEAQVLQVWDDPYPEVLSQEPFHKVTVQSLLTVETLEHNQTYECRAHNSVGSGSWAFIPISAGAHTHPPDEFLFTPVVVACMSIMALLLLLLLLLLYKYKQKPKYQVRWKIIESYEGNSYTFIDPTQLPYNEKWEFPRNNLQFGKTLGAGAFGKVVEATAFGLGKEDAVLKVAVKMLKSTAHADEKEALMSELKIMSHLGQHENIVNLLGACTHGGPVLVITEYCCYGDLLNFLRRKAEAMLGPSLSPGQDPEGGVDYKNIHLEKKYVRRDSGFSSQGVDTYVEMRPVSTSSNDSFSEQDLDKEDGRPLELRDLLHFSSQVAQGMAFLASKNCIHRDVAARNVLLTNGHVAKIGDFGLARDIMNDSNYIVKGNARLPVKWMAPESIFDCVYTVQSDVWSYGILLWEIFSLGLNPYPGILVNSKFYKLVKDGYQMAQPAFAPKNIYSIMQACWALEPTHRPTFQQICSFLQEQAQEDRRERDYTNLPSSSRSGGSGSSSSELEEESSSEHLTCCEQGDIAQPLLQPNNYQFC
Protocol: as §1, §2, §3

[7] = target: kinase named in conditions (Homo sapiens, UniProt P07948); details: LYN A, 10 μM
Protocol: as §1, §2, §3

[8] = target: kinase named in conditions (Homo sapiens, UniProt P07949, S891A); details: RET S891A, 10 μM
Chain of kinase named in conditions (Homo sapiens, UniProt P07949, S891A) (P07949 29-1114 S891A): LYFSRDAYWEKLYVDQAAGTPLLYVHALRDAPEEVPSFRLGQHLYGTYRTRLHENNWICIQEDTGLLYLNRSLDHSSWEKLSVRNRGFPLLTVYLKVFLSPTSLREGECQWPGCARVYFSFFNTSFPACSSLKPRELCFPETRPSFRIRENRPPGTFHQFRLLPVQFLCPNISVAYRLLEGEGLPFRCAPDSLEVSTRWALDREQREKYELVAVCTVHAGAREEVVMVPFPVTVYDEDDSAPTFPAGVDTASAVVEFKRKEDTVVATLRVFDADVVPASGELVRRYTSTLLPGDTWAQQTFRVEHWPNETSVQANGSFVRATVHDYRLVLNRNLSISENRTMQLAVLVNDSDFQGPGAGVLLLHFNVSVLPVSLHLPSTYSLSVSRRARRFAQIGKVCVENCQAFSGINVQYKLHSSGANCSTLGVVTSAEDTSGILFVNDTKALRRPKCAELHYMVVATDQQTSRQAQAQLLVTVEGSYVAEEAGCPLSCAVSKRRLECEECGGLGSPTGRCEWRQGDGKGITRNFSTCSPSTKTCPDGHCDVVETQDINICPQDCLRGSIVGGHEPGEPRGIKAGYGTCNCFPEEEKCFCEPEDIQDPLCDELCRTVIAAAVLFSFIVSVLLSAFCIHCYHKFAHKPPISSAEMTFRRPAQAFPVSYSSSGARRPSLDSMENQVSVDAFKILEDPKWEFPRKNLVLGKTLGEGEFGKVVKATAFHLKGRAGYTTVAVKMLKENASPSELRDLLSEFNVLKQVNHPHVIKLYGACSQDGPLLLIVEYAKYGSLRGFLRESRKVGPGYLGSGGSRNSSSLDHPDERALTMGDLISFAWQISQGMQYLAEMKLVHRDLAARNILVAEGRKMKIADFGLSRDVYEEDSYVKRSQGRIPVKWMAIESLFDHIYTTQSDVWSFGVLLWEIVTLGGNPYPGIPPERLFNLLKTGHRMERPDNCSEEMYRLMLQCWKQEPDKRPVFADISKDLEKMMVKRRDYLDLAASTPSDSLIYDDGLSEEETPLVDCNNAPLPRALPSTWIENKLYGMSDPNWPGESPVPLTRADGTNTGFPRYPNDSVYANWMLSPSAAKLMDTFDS
Protocol: as §1, §2, §3

[9] = target: kinase named in conditions (Homo sapiens, UniProt P07949, V804E); details: RET V804E, 10 μM
Protocol: as §1, §2, §3

[10] = target: kinase named in conditions (Homo sapiens, UniProt P08922); details: ROS1, 10 μM
Protocol: as §1, §2, §3

[11] = target: kinase named in conditions (Homo sapiens, UniProt P09769); details: FGR, 10 μM
Protocol: as §1, §2, §3

[12] = target: kinase named in conditions (Homo sapiens, UniProt P10721); details: KIT, 10 μM
Protocol: as §1, §2, §3

[13] = target: kinase named in conditions (Homo sapiens, UniProt P11309); details: PIM1, 10 μM
Chain of kinase named in conditions (Homo sapiens, UniProt P11309) (P11309 whole entry): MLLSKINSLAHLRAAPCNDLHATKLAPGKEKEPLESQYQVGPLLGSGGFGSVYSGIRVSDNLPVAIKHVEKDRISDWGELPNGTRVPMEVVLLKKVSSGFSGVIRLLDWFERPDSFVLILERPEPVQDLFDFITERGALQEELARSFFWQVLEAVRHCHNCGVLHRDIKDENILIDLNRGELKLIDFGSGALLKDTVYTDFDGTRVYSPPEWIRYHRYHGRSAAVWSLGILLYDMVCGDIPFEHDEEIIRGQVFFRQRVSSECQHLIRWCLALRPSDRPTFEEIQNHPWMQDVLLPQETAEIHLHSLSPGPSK
Protocol: as §1, §2, §3

[14] = target: kinase named in conditions (Homo sapiens, UniProt P16234); details: PDGFRA (PDGFR alpha), 10 μM
Protocol: as §1, §2, §3

[15] = target: kinase named in conditions (Homo sapiens, UniProt P29317); details: EPHA2, 10 μM
Protocol: as §1, §2, §3

[16] = target: kinase named in conditions (Homo sapiens, UniProt P42681); details: TXK, 10 μM
Protocol: as §1, §2, §3

[17] = target: kinase named in conditions (Homo sapiens, UniProt P48730); details: CSNK1D (CK1 delta), 10 μM
Protocol: as §1, §2, §3

[18] = target: kinase named in conditions (Homo sapiens, UniProt P49674, R178C); details: CSNK1E (CK1 epsilon) R178C, 10 μM
Chain of kinase named in conditions (Homo sapiens, UniProt P49674, R178C) (P49674 whole entry R178C): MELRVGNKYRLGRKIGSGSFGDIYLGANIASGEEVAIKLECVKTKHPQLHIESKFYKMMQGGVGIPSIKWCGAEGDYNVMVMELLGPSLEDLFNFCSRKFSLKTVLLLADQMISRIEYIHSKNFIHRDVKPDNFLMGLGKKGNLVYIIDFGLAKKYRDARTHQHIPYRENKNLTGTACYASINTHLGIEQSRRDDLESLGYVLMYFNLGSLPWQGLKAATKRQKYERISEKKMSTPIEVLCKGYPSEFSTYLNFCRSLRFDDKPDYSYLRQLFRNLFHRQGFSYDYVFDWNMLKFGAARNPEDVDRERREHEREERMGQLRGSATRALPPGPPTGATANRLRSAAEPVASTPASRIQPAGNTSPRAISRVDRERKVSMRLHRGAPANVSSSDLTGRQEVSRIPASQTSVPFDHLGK
Protocol: as §1, §2, §3

[19] = target: kinase named in conditions (Homo sapiens, UniProt P49841); details: GSK3B (GSK3 beta), 10 μM
Chain of kinase named in conditions (Homo sapiens, UniProt P49841) (P49841 whole entry): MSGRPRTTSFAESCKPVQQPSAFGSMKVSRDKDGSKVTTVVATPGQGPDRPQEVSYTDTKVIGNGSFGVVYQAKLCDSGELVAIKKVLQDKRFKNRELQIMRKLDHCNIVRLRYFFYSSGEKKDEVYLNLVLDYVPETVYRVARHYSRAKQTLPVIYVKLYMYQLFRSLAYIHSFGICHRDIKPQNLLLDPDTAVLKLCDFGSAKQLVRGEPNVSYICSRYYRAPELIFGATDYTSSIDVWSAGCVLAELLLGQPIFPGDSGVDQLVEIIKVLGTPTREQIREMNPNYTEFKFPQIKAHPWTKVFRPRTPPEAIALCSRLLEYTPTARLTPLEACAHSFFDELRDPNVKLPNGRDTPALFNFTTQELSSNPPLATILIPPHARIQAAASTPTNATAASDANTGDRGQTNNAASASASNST
Protocol: as §1, §2, §3

[20] = target: kinase named in conditions (Homo sapiens, UniProt P51812); details: RPS6KA3 (RSK2), 10 μM
Protocol: as §1, §2, §3

[21] = target: kinase named in conditions (Homo sapiens, UniProt P53350); details: PLK1, 10 μM
Protocol: as §1, §2, §3

[22] = target: kinase named in conditions (Homo sapiens, UniProt Q05655); details: PRKCD (PKC delta), 10 μM
Chain of kinase named in conditions (Homo sapiens, UniProt Q05655) (Q05655 whole entry): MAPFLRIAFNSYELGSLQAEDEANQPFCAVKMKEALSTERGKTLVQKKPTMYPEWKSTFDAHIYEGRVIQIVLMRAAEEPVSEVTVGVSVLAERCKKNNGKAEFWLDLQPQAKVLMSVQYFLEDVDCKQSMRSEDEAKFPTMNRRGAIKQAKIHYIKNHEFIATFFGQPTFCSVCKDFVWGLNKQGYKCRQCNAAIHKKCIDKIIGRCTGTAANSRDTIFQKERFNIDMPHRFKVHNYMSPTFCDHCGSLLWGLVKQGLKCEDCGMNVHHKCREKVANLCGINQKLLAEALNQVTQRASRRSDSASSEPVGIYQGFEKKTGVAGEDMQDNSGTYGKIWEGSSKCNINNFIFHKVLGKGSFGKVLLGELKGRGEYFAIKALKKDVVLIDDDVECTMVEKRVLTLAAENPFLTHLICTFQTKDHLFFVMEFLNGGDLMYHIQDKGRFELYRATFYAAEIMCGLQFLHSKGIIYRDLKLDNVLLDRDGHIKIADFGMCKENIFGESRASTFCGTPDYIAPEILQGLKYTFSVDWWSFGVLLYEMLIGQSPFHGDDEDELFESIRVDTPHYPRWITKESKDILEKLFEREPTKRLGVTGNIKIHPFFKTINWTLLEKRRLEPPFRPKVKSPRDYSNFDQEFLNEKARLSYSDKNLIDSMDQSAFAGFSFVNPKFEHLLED
Protocol: as §1, §2, §3

[23] = target: kinase named in conditions (Homo sapiens, UniProt Q06418); details: TYRO3 (RSE), 10 μM
Protocol: as §1, §2, §3

[24] = target: kinase named in conditions (Homo sapiens, UniProt Q13237); details: PRKG2 (PKG2), 10 μM
Protocol: as §1, §2, §3

[25] = target: kinase named in conditions (Homo sapiens, UniProt Q13470); details: TNK1, 10 μM
Chain of kinase named in conditions (Homo sapiens, UniProt Q13470) (Q13470 whole entry): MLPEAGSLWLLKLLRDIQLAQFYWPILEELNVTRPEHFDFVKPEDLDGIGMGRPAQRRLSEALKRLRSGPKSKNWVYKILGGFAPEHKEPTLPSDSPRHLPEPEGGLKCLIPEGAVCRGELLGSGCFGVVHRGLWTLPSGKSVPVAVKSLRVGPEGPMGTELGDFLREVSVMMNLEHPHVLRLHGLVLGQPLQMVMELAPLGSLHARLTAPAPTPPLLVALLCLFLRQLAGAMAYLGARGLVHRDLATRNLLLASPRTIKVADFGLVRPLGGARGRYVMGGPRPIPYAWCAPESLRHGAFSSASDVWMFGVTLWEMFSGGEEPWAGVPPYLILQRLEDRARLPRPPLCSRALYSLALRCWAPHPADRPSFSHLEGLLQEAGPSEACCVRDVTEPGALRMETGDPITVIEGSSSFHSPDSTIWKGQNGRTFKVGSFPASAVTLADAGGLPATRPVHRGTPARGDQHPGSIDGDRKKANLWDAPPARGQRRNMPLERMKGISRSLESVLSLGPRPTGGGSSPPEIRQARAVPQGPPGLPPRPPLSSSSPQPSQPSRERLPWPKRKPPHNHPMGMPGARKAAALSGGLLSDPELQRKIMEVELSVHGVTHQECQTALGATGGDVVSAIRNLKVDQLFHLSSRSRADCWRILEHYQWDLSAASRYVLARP
Protocol: as §1, §2, §3

[26] = target: kinase named in conditions (Homo sapiens, UniProt Q96GD4); details: AURKB (Aurora B), 10 μM
Protocol: as §1, §2, §3

[27] = target: kinase named in conditions (Homo sapiens, UniProt Q96L34); details: MARK4, 10 μM
Protocol: as §1, §2, §3

[28] = target: kinase named in conditions (Homo sapiens, UniProt Q9P1W9); details: PIM2, 10 μM
Protocol: as §1, §2, §3

[29] = target: kinase named in conditions (Homo sapiens, UniProt Q9UBS0); details: RPS6KB2 (p70S6Kb), 10 μM
Protocol: as §1, §2, §3

[30] = target: kinase named in conditions (Homo sapiens, UniProt Q9UHD2); details: TBK1, 10 μM
Protocol: as §1, §2, §3

[31] = target: kinase named in conditions (Homo sapiens, UniProt Q9UQM7); details: CAMK2A (CaMKII alpha), 10 μM
Chain of kinase named in conditions (Homo sapiens, UniProt Q9UQM7) (Q9UQM7 whole entry): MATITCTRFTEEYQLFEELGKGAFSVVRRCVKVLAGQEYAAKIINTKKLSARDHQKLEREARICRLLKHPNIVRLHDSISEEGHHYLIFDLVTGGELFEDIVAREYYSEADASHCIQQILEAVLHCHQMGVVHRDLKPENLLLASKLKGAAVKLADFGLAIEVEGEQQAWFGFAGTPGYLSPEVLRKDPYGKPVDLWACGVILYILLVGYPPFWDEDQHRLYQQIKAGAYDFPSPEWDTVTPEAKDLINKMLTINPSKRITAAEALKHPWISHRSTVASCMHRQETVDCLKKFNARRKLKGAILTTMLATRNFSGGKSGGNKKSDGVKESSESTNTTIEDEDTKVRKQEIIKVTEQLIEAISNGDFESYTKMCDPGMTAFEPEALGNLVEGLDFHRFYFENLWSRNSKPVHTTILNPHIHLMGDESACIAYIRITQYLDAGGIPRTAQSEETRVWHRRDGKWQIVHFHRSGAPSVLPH
Protocol: as §1, §2, §3

[32] = target: kinase named in conditions (Homo sapiens, UniProt Q9Y243); details: AKT3 (PKB gamma), 10 μM
Protocol: as §1, §2, §3

[33] = target: kinase named in conditions (Homo sapiens, UniProt Q9Y5S2); details: CDC42 BPB (MRCKB), 10 μM
Protocol: as §1, §2, §3

[34] = target: kinase named in conditions (Homo sapiens, UniProt Q9Y6M4); details: CSNK1G3 (CK1 gamma 3), 10 μM
Protocol: as §1, §2, §3

FC(F)(F)c1c(Cl)ccc(-n2ccnn2)c1Cl [8l, 1-(2,4-Dichloro-3-(trifluoromethyl)phenyl)-1H-1,2,3-triazole] gave an inhibition at 10 µM [1] of -5%, an inhibition at 10 µM [2] of 12% and an inhibition at 10 µM [3] of 3%. The inhibition at 10 µM [4] was 6%, the inhibition at 10 µM [5] was 6% and the inhibition at 10 µM [6] was 6%. For the same compound, the inhibition at 10 µM [7] was -1%, the inhibition at 10 µM [8] was 10% and the inhibition at 10 µM [9] was 4%. For the same compound, the inhibition at 10 µM [10] was 9%, the inhibition at 10 µM [11] was 4% and the inhibition at 10 µM [12] was -7%. It also gave an inhibition at 10 µM [13] of 6%, an inhibition at 10 µM [14] of 13% and an inhibition at 10 µM [15] of 9%. It also gave an inhibition at 10 µM [16] of 4%, an inhibition at 10 µM [17] of 3% and an inhibition at 10 µM [18] of -3%. The inhibition at 10 µM [19] was 7%, the inhibition at 10 µM [20] was -3% and the inhibition at 10 µM [21] was 13%. The inhibition at 10 µM [22] was -4%, the inhibition at 10 µM [23] was 5% and the inhibition at 10 µM [24] was 8%. It also gave an inhibition at 10 µM [25] of -3%, an inhibition at 10 µM [26] of 7% and an inhibition at 10 µM [27] of -2%. For the same compound, the inhibition at 10 µM [28] was 5%, the inhibition at 10 µM [29] was 4% and the inhibition at 10 µM [30] was 0%. The inhibition at 10 µM [31] was -2%, the inhibition at 10 µM [32] was 3% and the inhibition at 10 µM [33] was -1%. It also gave an inhibition at 10 µM [34] of 0%.

— publication PMC9150124, “Design of a Potent, Selective, and Brain-Penetrant Inhibitor of Wnt-Deactivating Enzyme Notum by Optimization of a Crystallographic Fragment Hit” (Journal of Medicinal Chemistry, 2022)
